Experimental data from patent publication US20230203482A1, “Methods of Rescuing Stop Codons via Genetic Reassignment with ACE-tRNA” (THE WISTAR INSTITUTE OF ANATOMY AND BIOLOGY, priority 2017, published 2023).

Legend:
[1] = test system: histidinol dehydrogenase (HDH) N94-TGA; assay: Mass spectrometry of suppressed histidinol dehydrogenase (cognate amino acid encoding); format: cell-based, E. coli; conditions: MS/MS of tryptic fragment
Excerpt: (§1) For expression in mammalian cells, the cDNA for the coding region and 200 base-pair of the 3′ untranslated region (UTR) of human CFTR was ligated into pcDNA3.1(+) (Promega, USA) using the KpnI and XbaI restriction enzymes. The G542tga and W1282tga mutations were introduced using QuickChange XL II (Stratagene, USA). For expression in Xenopus laevis oocytes, the cDNA for the coding region and 140 base-pair of the 5′ and 244 base-pair 3′ UTR of human CFTR was ligated into pGEM-HE (Promega, USA). Bothe the G542tga and W1282tga mutations were introduced using QuickChange XL II. The cDNA encoding the E. coli histidinol dehydrogenase was codon optimized for Mus musculus and synthesized (BioBasic Inc, Canada) with a c-terminal 8xHis-Strep-tag for protein purification from mammalian cells. The synthesized cDNA was ligated into pcDNA3.1(+) using EcoRI and XhoI restriction sites. The nonsense mutations tag, taa and tga were introduced using QuickChange XL II. […]

CFTR W1282X = CFTR W1282X rescue, western blot in HEK cells; format: cell-based, human; conditions: CFTR W1282X cDNA co-expressed in HEK cells, antibody M3A7
Description: To assess is these novel tRNA could rescue CFTR channels harboring nonsense codons, they were co-expressed in mammalian HEK cells with a CFTR W1282X cDNA plasmid. The cellular preparations were analyzed by standard biochemical approaches via Western blot assessment of CFTR protein. […] Specifically, the “B” and “C” bands represent the full-length and fully mature, post-translationally proceeded CFTR protein at the cell surface, respectively. […] FIG. 9.
as §1, with “sites.” for “sites. The nonsense mutations tag, taa and tga were introduced using QuickChange XL II.”

Molecule	mass modification of Asn at HDH N94 [1]	rescue of full-length CFTR protein (B and C bands) (CFTR W1282X)
Trpchr17.trna39: top performing tryptophan ACE-tRNA UGA suppressor, SEQ ID NO: 48	+72 Da	robust populations of ‘B’ and ‘C’ CFTR immunopositive (antibody MA37) bands
Glychr19.trna2: top performing glycine ACE-tRNA UGA suppressor, SEQ ID NO: 53 (nucleic acid, chemistry not fully specified) GCGTTGGTGGTATAGTGGTTAGCATAGCTGCCTTCAAAGCAGTTGACCCGGGTTCGATTCCCGGCCAACGCA	−57 Da	robust populations of ‘B’ and ‘C’ CFTR immunopositive (antibody MA37) bands
